Source: US10087148B2, “Quinazolines as biogenic amine transport modulators” (THE UNITED STATES OF AMERICA AS REPRESENTED BY THE …, priority 2014, dated 2018)

What follows are molecules tested against T1, dopamine transporter (DAT) (Rattus norvegicus (Rat), UniProt P23977) (assay: [3H]dopamine (DA) uptake inhibition in rat brain (caudate) synaptosomes). Details: mean ± S.D.; n = 3; read-out: DAT Uptake Emax.
Type: biochemical

T1 sequence (P23977 whole entry): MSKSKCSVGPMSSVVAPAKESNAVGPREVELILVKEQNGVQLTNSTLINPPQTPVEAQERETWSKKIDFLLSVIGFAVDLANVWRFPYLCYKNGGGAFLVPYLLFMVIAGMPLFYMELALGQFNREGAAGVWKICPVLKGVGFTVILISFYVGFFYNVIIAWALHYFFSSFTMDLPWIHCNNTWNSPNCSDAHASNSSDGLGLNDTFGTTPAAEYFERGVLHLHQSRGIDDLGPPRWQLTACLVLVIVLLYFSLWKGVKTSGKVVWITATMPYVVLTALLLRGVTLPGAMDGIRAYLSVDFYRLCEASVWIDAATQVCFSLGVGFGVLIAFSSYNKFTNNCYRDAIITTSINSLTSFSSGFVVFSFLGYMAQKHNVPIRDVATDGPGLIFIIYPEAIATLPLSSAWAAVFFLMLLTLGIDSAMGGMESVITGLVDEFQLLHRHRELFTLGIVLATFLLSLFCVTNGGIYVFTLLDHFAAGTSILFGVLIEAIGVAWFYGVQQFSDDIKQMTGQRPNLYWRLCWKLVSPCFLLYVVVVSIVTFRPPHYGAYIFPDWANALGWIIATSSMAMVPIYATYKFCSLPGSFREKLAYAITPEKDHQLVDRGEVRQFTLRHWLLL

SMILES	Emax [%]
c1ccc(C(CNc2nc(-c3cnc4nccn4c3)nc3ccccc23)C2CCCCC2)cc1 (centres unmarked) [SRI-30517]	70 ± 1
c1ccc(C(CNc2nc(-c3ccc4ncnn4c3)nc3ccccc23)c2ccccc2)cc1 [SRI-30522]	63 ± 1
c1ccc(C(CNc2nc(-c3cnc4nccn4c3)nc3ccccc23)c2ccncc2)cc1 (centres unmarked) [SRI-30810]	64 ± 1
c1ccc(C(CNc2nc(-c3ccc4nccn4c3)nc3ccccc23)c2ccc[nH]2)cc1 (centres unmarked) [SRI-30826]	64 ± 2

Same assay, conditions: values in Table 9; read-out: Emax for DAT Uptake Inhibition

SMILES	Emax [%]
c1ccc(C(CNc2nc(-c3cnc4nccn4c3)nc3ccccc23)C2CCCCC2)cc1 (centres unmarked) [SRI-30517]	70
c1ccc(C(CNc2nc(-c3ccc4ncnn4c3)nc3ccccc23)c2ccccc2)cc1 [SRI-30522]	63
c1ccc(C(CNc2nc(-c3cnc4nccn4c3)nc3ccccc23)c2ccncc2)cc1 (centres unmarked) [SRI-30810]	64
c1ccc(C(CNc2nc(-c3ccc4nccn4c3)nc3ccccc23)c2ccc[nH]2)cc1 (centres unmarked) [SRI-30826]	64

These molecules were tested against T1, dopamine transporter (DAT) (assay: Dopamine transporter-mediated [3H]MPP+ release (d-amphetamine-induced, shift experiments) in rat caudate synaptosomes). Details: [3H]MPP+ release; [Blocker]/((EC50-2/EC50-1) − 1).
Type: biochemical

SMILES	Apparent Kc [nM]
c1ccc(C(CNc2nc(-c3cnc4nccn4c3)nc3ccccc23)C2CCCCC2)cc1 (centres unmarked) [SRI-30517]	1600
c1ccc(C(CNc2nc(-c3cnc4nccn4c3)nc3ccccc23)c2ccncc2)cc1 (centres unmarked) [SRI-30810]	1200
c1ccc(C(CNc2nc(-c3ccc4nccn4c3)nc3ccccc23)c2ccc[nH]2)cc1 (centres unmarked) [SRI-30826]	1600

Same assay, conditions: read-out: d-Amphetamine Emax in presence of blocker; [3H]MPP+ release; blocker concentration per row; mean ± S.D.; n = 3

SMILES	Emax [%]
c1ccc(C(CNc2nc(-c3cnc4nccn4c3)nc3ccccc23)C2CCCCC2)cc1 (centres unmarked) [SRI-30517]	104 ± 4
c1ccc(C(CNc2nc(-c3ccc4ncnn4c3)nc3ccccc23)c2ccccc2)cc1 [SRI-30522]	105 ± 4
c1ccc(C(CNc2nc(-c3cnc4nccn4c3)nc3ccccc23)c2ccncc2)cc1 (centres unmarked) [SRI-30810]	104 ± 5
c1ccc(C(CNc2nc(-c3ccc4nccn4c3)nc3ccccc23)c2ccc[nH]2)cc1 (centres unmarked) [SRI-30826]	105 ± 4

Each molecule was assayed against DAT (Rattus norvegicus (Rat), UniProt P23977) (assay: Inhibition of [3H]WIN35428 binding to rat caudate DAT). Details: [3H]WIN35428; mean ± S.D.; n = 3.
Sequence of DAT (P23977 whole entry): as above
Description: All of the test compounds were synthesized as described herein. […] The data from three experiments were pooled and fit to a dose-response curve equation (using KaleidaGraph; Synergy Software, Reading, Pa.) to yield an Emax and IC50 value. […] Selected compounds were also tested for their ability to inhibit [^3H]WIN35428 binding to rat caudate DAT.

SMILES	Emax [%]	DAT Binding Emax
c1ccc(C(CNc2nc(-c3cnc4nccn4c3)nc3ccccc23)C2CCCCC2)cc1 (centres unmarked) [SRI-30517]	43 ± 4	–
c1ccc(C(CNc2nc(-c3ccc4ncnn4c3)nc3ccccc23)c2ccccc2)cc1 [SRI-30522]	–	Inactive
c1ccc(C(CNc2nc(-c3cnc4nccn4c3)nc3ccccc23)c2ccncc2)cc1 (centres unmarked) [SRI-30810]	25 ± 2	–
c1ccc(C(CNc2nc(-c3ccc4nccn4c3)nc3ccccc23)c2ccc[nH]2)cc1 (centres unmarked) [SRI-30826]	42 ± 3	–

Same assay, conditions: [3H]WIN35428; mean ± S.D.; n = 3; unit as printed in head (text gives 1100 nM where table prints 1.1)

SMILES	IC50 [nM]	DAT Binding IC50
c1ccc(C(CNc2nc(-c3cnc4nccn4c3)nc3ccccc23)C2CCCCC2)cc1 (centres unmarked) [SRI-30517]	160 ± 80	–
c1ccc(C(CNc2nc(-c3ccc4ncnn4c3)nc3ccccc23)c2ccccc2)cc1 [SRI-30522]	–	Inactive
c1ccc(C(CNc2nc(-c3cnc4nccn4c3)nc3ccccc23)c2ccncc2)cc1 (centres unmarked) [SRI-30810]	820 ± 360	–
c1ccc(C(CNc2nc(-c3ccc4nccn4c3)nc3ccccc23)c2ccc[nH]2)cc1 (centres unmarked) [SRI-30826]	1280 ± 400	–

These molecules were tested against serotonin transporter (SERT) (Rattus norvegicus (Rat), UniProt P31652) (assay: [3H]serotonin (5-HT) uptake inhibition in rat brain synaptosomes). Details: mean ± S.D.; n = 3; read-out: SERT Uptake Emax.
Sequence of serotonin transporter (SERT) (P31652 whole entry): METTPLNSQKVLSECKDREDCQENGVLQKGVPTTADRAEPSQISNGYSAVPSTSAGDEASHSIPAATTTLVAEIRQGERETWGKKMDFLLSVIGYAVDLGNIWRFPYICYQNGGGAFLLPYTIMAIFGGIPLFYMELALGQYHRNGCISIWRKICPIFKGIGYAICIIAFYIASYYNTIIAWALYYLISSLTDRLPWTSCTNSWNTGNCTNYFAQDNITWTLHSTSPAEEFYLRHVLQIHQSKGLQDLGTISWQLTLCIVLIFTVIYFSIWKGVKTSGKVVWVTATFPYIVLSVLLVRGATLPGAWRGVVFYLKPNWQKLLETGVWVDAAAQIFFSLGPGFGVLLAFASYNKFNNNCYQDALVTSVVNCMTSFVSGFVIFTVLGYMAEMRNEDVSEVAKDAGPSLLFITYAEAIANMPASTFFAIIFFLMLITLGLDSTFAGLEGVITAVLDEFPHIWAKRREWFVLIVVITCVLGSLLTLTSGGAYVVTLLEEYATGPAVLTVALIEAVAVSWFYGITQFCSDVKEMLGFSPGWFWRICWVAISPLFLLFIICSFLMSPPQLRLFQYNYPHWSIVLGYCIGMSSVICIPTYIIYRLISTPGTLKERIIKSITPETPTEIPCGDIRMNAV
Type: biochemical
Description: Uptake inhibition assay for the serotonin transporter was conducted in rat brain synaptosomes as described elsewhere with minor modifications (Rothman et al., Synapse 39, 32-41 (2001)). Freshly removed whole brain minus cerebellum and caudate was homogenized in 10% ice-cold sucrose with 12 strokes of a hand-held Potter-Elvehjem homogenizer followed by centrifugation at 1000×g for 10 min. The supernatants were saved on ice and used immediately. Transporter activity at SERT was assessed using 5 nM [^3H]serotonin. The assay buffer was Krebs-phosphate buffer containing 154.4 mM NaCl, 2.9 mM KCl, 1.1 mM CaCl2, 0.83 mM MgCl2, 5 mM glucose, 1 mg/mL ascorbic acid, and 50 μM pargyline. […] Uptake inhibition assays were conducted at 25° C. and were initiated by adding 100 μL of tissue to 900 μL assay buffer containing test drug and [^3H]serotonin. Test drugs were diluted in assay buffer containing 1 mg/mL bovine serum albumin. Nonspecific uptake was measured by incubating in the presence of 10 μM indatraline. The reactions were stopped after 30 min by rapid vacuum filtration with a cell harvester (BRANDEL) over GF/B filters (Whatman) presoaked in wash buffer maintained at 25° C. (10 mM Tris-HCl, pH 7.4/150 mM NaCl). Filters were rinsed with 6 mL wash buffer and retained tritium was quantified by a MicroBeta liquid scintillation counter (PerkinElmer) after overnight extraction in 0.6 mL of liquid scintillation cocktail (Cytoscint, ICN). The data from three experiments were pooled and fit to a dose-response curve equation (using Kaleidagraph), to yield an Emax and EC50 value.

SMILES	Emax [%]
c1ccc(C(CNc2nc(-c3cnc4nccn4c3)nc3ccccc23)C2CCCCC2)cc1 (centres unmarked) [SRI-30517]	54 ± 1
c1ccc(C(CNc2nc(-c3ccc4ncnn4c3)nc3ccccc23)c2ccccc2)cc1 [SRI-30522]	35 ± 3
c1ccc(C(CNc2nc(-c3cnc4nccn4c3)nc3ccccc23)c2ccncc2)cc1 (centres unmarked) [SRI-30810]	51 ± 2
c1ccc(C(CNc2nc(-c3ccc4nccn4c3)nc3ccccc23)c2ccc[nH]2)cc1 (centres unmarked) [SRI-30826]	56 ± 2

The molecules below were run against norepinephrine transporter (NET) (Rattus norvegicus, UniProt Q63380) (assay: [3H]norepinephrine (NE) uptake inhibition in rat brain synaptosomes). Details: read-out: NET Uptake Emax.
Sequence of norepinephrine transporter (NET) (Q63380 1-617): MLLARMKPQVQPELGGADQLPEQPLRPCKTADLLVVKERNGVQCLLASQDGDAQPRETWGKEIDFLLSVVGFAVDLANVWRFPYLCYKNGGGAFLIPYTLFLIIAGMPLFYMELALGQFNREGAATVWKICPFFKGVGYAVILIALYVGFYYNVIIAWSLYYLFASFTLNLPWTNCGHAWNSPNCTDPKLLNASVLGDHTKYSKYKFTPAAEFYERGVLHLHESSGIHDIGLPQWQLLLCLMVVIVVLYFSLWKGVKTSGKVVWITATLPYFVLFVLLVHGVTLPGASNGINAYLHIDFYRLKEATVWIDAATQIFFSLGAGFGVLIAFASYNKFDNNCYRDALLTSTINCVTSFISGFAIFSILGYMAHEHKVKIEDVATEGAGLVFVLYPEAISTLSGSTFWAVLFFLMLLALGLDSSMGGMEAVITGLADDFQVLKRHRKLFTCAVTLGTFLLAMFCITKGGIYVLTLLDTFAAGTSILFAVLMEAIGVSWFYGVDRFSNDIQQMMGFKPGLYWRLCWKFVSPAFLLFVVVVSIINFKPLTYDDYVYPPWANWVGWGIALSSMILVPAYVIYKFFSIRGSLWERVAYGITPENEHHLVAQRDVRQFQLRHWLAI
Type: biochemical
Description: Uptake inhibition assay for the norepinephrine transporter was conducted in rat brain synaptosomes as described elsewhere with minor modifications (Rothman et al., Synapse 39, 32-41 (2001)). Freshly removed whole brain minus cerebellum and caudate was homogenized in 10% ice-cold sucrose with 12 strokes of a hand-held Potter-Elvehjem homogenizer followed by centrifugation at 1000×g for 10 minutes. The supernatants were saved on ice and used immediately. Transporter activity at NET was assessed using 10 nM [^3H]norepinephrine. The assay buffer was Krebs-phosphate buffer containing 154.4 mM NaCl, 2.9 mM KCl, 1.1 mM CaCl2, 0.83 mM MgCl2, 5 mM glucose, 1 mg/mL ascorbic acid, and 50 μM pargyline. […] Uptake inhibition assays were conducted at 37° C. and were initiated by adding 100 μL of tissue to 900 μL assay buffer containing test drug and [^3H]norepinephrine. Test drugs were diluted in assay buffer containing 1 mg/mL bovine serum albumin. Nonspecific uptake was measured by incubating in the presence of 10 μM indatraline. The reactions were stopped after 10 minutes by rapid vacuum filtration with a cell harvester (BRANDEL) over GF/B filters (Whatman) presoaked in wash buffer maintained at 25° C. (10 mM Tris-HCl, pH 7.4/150 mM NaCl). Filters were rinsed with 6 mL wash buffer and retained tritium was quantified by a MicroBeta liquid scintillation counter (PerkinElmer) after overnight extraction in 0.6 mL of liquid scintillation cocktail (Cytoscint, ICN). The data from three experiments were pooled and fit to a dose-response curve equation (using Kaleidagraph), to yield an Emax and EC50 value.

SMILES	Emax [%]
c1ccc(C(CNc2nc(-c3cnc4nccn4c3)nc3ccccc23)C2CCCCC2)cc1 (centres unmarked) [SRI-30517]	70 ± 2
c1ccc(C(CNc2nc(-c3ccc4ncnn4c3)nc3ccccc23)c2ccccc2)cc1 [SRI-30522]	40 ± 5
c1ccc(C(CNc2nc(-c3cnc4nccn4c3)nc3ccccc23)c2ccncc2)cc1 (centres unmarked) [SRI-30810]	69 ± 2
c1ccc(C(CNc2nc(-c3ccc4nccn4c3)nc3ccccc23)c2ccc[nH]2)cc1 (centres unmarked) [SRI-30826]	81 ± 2

Same assay, conditions: read-out: NET Uptake IC50; mean ± S.D.; n = 3

SMILES	IC50 [nM]
c1ccc(C(CNc2nc(-c3cnc4nccn4c3)nc3ccccc23)C2CCCCC2)cc1 (centres unmarked) [SRI-30517]	95 ± 12
c1ccc(C(CNc2nc(-c3ccc4ncnn4c3)nc3ccccc23)c2ccccc2)cc1 [SRI-30522]	86 ± 55
c1ccc(C(CNc2nc(-c3cnc4nccn4c3)nc3ccccc23)c2ccncc2)cc1 (centres unmarked) [SRI-30810]	60 ± 10
c1ccc(C(CNc2nc(-c3ccc4nccn4c3)nc3ccccc23)c2ccc[nH]2)cc1 (centres unmarked) [SRI-30826]	88 ± 15
